Earlier results on 1 molecule are cited in patent US9045800B2, “Methods and compositions for identifying, classifying and monitoring subject having Bcl-2 family inhibitor-resistant tumors and cancers” (AbbVie Inc., priority 2009, dated 2015).

Data set [1] deals with human cancer cell lines (SCLC and lymphoma cell lines).
For data set [2], the system named is solid tumors. To be noted: literature statement, no dose or model printed.

For the molecule `CN(C)CC[C@H](CSc1ccccc1)Nc1ccc(S(=O)(=O)NC(=O)c2ccc(N3CCN(Cc4ccccc4-c4ccc(Cl)cc4)CC3)cc2)cc1[N+](=O)[O-]` [ABT-737, N-(4-(4-((4′-chloro(1,1′-biphenyl)-2-yl)methyl)piperazin-1-yl)benzoyl)-4-(((1R)-3-(dimethylamino)-1-((phenylsulfanyl)methyl)propyl)amino)-3-nitrobenzenesulfonamide], in data set [1], the “potency against a diverse panel of human cancer cell lines” value is “selective potency against SCLC and lymphoma cell lines”. In data set [2], the “effect on solid tumors” value is “induce regression of solid tumors”.
